Molecular target: T1, RAF1 (cRAF) Y340D Y341D (Homo sapiens, UniProt P04049, Y340D/Y341D)
T1 construct: purchased Thermo Fisher Scientific (Life Technologies) SelectScreen
Assay: SelectScreen Z'LYTE
Format: biochemical
Details: ATP 100 µM
Procedure, shortened: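 Percent values come from Thermo SelectScreen profiling of NU5455, combining activity and binding assays. CSF1R was run in Z'LYTE format at Km app ATP, and CAMK1 in Adapta format with ATP listed at 10.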

T1 sequence (P04049 whole entry Y340D/Y341D): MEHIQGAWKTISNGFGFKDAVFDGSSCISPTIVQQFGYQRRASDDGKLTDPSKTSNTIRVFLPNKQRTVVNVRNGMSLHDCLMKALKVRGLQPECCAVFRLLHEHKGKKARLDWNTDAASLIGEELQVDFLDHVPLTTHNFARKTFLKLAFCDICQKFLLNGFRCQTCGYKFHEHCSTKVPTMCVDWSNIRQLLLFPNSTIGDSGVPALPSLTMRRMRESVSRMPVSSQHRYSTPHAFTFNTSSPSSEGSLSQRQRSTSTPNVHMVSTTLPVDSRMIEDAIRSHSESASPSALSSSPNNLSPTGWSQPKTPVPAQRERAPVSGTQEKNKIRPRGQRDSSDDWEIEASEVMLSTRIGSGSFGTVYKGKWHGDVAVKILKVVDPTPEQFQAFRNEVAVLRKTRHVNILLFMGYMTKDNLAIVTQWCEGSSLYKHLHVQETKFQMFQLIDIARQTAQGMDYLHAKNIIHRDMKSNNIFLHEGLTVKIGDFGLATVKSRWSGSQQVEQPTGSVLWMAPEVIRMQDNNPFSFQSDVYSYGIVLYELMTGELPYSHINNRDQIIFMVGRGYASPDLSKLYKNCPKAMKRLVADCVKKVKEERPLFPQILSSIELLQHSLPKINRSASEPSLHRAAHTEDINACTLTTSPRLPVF

`CN(C(=O)CN1CCOCC1)c1ccc2sc3c(-c4cccc5c(=O)cc(N6CC7CCC(C6)O7)oc45)cccc3c2c1` [NU5455] showed an inhibition at 1 µM of 7.9%.
